In test [1] the test system is Phosphorylated Ribosomal Protein S6 (RPS6). The test is described as follows: THP-1 RPS6 ELISA Assay. Format: cell-based, Human. The settings on record: THP-1 cells, read-out: PI3Kγ_THP1_RPS6_ELISA IC50. In a few lines: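 Serum-starved THP-1 cells were preincubated with a concentration range of compound for 2 h at 37 °C, then stimulated with 10 nM MCP-1 for 15 min. Phospho-RPS6 in lysates was quantified by ELISA at 450 nm. IC50 came from percent inhibition versus log inhibitor concentration.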

The target in test [2] is PI3Kγ (p110γ) Recombinant Human Protein (Homo sapiens (Human), UniProt P48736). The test is described as follows: PI3K-γ Scintillation Proximity Assay. In kind it is biochemical. The settings on record: read-out: PI3Kγ IC50. The gist of the method:
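Recombinant human p110γ assayed at room temperature in 20 mM MOPS pH 6.7, 10 mM MgCl2, 5 mM DTT, 0.03% CHAPS, 2% DMSO, with 20 μM PIP2 and 2 μM ATP plus [γ-33P]ATP. Product captured on WGA SPA beads overnight and counted; IC50 fitted from % of solvent-control activity versus log inhibitor concentration.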

Test [3] addresses PI3Kδ (p110δ/p85α) Recombinant Human Protein (Homo sapiens (Human), UniProt O00329). Description: PI3Kδ Scintillation Proximity Assay. In kind it is biochemical. In a few lines:
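Kinase reaction run at room temperature in 20 mM MOPS pH 6.7, 10 mM MgCl2, 5 mM DTT, 0.03% CHAPS with 20 μM PIP2, 2 μM ATP plus [γ-33P]ATP, 3.4 nM enzyme, 2% DMSO; 120 min. Quenched with WGA SPA beads/EDTA, counted by scintillation; IC50 from % solvent-control activity vs log concentration.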

Where a name gives a salt, the structure may show the parent alone. Read-outs that look alike come from different tables or passages of the source.

Sequence of PI3Kδ (p110δ/p85α) Recombinant Human Protein (O00329 whole entry): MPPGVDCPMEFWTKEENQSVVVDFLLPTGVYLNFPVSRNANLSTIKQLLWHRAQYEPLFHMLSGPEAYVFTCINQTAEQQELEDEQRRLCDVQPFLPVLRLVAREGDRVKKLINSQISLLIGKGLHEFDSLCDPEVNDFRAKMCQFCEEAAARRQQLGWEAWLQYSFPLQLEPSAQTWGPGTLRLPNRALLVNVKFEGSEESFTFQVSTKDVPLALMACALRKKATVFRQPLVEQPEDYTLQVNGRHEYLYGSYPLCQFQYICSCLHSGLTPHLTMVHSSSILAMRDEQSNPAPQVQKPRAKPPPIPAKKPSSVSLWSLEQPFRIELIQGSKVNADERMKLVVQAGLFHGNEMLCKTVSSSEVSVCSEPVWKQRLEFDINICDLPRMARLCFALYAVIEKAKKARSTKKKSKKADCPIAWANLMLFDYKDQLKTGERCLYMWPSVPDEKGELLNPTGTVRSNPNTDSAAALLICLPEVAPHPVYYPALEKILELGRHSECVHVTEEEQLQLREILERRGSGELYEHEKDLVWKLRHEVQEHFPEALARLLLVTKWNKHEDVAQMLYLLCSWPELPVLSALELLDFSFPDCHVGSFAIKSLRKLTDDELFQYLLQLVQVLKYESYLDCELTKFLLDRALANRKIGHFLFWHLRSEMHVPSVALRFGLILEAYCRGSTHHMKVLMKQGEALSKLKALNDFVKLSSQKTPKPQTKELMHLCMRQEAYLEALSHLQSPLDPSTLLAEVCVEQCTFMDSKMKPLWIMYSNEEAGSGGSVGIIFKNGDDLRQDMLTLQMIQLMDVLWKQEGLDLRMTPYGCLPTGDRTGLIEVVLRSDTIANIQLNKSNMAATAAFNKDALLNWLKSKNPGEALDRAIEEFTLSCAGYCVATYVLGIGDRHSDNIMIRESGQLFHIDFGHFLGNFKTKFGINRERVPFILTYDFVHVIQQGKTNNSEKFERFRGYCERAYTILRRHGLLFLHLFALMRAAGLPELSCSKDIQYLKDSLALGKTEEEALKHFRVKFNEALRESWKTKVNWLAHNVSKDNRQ
Sequence of PI3Kδ (p110δ/p85α) Recombinant Human Protein (P27986 whole entry partner): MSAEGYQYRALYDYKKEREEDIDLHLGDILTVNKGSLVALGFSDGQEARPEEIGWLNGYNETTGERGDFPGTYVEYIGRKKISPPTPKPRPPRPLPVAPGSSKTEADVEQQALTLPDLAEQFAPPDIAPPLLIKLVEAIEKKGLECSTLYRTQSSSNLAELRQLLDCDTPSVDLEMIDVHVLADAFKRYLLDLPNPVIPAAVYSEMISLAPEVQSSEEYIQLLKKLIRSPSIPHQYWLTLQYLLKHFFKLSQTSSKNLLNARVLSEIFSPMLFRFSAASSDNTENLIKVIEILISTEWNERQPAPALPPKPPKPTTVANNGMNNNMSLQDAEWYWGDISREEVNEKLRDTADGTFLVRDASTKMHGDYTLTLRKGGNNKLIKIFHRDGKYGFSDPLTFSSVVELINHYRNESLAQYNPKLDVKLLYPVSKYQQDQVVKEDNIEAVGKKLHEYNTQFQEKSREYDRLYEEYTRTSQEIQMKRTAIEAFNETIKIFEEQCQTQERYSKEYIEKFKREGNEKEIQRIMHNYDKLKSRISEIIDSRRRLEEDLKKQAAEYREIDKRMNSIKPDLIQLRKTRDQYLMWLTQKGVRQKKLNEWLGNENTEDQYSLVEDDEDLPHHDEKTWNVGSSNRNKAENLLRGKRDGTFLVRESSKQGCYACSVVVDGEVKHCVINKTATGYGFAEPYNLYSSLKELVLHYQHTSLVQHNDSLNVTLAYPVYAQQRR
Sequence of PI3Kγ (p110γ) Recombinant Human Protein (P48736 whole entry): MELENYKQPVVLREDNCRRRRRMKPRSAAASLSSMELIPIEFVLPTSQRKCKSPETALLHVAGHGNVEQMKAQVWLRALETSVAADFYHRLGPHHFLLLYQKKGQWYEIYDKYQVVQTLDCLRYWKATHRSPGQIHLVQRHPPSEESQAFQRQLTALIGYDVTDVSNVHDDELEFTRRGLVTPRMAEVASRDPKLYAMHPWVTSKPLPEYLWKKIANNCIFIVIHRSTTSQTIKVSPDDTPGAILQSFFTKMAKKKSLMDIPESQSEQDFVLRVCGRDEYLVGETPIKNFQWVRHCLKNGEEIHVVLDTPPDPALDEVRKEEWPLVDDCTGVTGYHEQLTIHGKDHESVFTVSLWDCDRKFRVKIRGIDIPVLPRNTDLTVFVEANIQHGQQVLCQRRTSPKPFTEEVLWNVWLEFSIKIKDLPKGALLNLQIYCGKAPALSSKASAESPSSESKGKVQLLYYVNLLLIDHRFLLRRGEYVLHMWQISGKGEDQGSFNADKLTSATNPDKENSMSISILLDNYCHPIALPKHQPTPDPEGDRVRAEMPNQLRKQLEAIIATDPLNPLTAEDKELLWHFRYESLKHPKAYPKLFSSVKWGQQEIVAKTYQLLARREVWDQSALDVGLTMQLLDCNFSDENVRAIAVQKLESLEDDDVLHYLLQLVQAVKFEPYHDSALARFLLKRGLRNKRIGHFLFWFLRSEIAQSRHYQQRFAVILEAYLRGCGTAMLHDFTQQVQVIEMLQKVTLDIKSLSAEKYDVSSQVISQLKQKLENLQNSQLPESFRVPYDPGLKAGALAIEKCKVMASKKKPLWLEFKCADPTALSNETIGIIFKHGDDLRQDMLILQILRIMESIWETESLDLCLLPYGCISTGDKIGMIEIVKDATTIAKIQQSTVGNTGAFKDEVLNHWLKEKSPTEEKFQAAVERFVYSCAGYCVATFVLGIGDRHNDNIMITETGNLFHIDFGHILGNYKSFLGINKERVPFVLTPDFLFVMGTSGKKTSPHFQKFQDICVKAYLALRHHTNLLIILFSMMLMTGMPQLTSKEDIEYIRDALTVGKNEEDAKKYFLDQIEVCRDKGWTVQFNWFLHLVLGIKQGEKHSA

Turning to `CC(=O)N1CC(O)(CNS(=O)(=O)c2ccc(C)c(-c3cnc4c(N)nc(C(F)(F)F)nn34)c2)C1` [Example 325, N-((l-Acetyl-3-hydroxyazetidin-3-yl)methyl)-3-(4-amino-2-(trifluoromethyl)imidazo[1,2-f][1,2,4]triazin-7-yl)-4-methylbenzenesulfonamide trifluoroacetate salt], the IC50 in test [1] was 0.1 to 0.5 µM; in test [2] it was less than 0.1 µM; in test [3], less than 0.1 µM.
`CNC(=O)c1cn2c(-c3cc(S(=O)(=O)NCC4CC(F)(F)C4)ccc3C)cnc2c(N)n1` [Example 445, 8-Amino-3-(5-(N-((3,3-difluorocyclobutyl)methyl)sulfamoyl)-2-methylphenyl)-N-methylimidazo[1,2-a]pyrazine-6-carboxamide trifluoroacetate salt]: the IC50 was 0.1 to 0.5 µM in test [1] (Homo sapiens), less than 0.1 µM in test [2] and 0.1 to 0.5 µM in test [3].
On to `Cc1ccc(S(=O)(=O)N[C@H]2CC[C@@H](C#N)C2)cc1-c1cnc2c(N)nc(C(F)(F)F)nn12` (single isomer, unassigned) [Example 321], for which the IC50 in test [1], in test [2] and in test [3] was less than 0.1 µM each time.
Turning to `Cc1ccc(S(=O)(=O)CCC(C)O)cc1-c1cnc2c(N)nc(C(F)(F)F)cn12` (stereo not drawn) [Example 494, 4-((3-(8-Amino-6-(trifluoromethyl)imidazo[1,2-a]pyrazin-3-yl)-4-methylphenyl)sulfonyl)butan-2-ol], the results for the IC50 in test [1] (Homo sapiens), in test [2] and in test [3] were more than 1 µM, less than 0.1 µM and 0.5 to 2 µM, respectively.
For `Cc1ccc(S(=O)(=O)NC23CCC(CO)(C2)C3)cc1-c1cnc2c(N)nc(C3CC3)nn12` [Example 259, 3-(4-Amino-2-cyclopropylimidazo[2,1-f][1,2,4]triazin-7-yl)-N-(4-(hydroxymethyl)bicyclo[2.1.1]hexan-1-yl)-4-methylbenzenesulfonamide trifluoroacetate salt] the same measures were less than 0.1 µM, less than 0.1 µM and 0.1 to 0.5 µM.
For `Cc1cn2c(-c3cccc(S(=O)(=O)NC45CCC(CO)(C4)C5)c3)cnc2c(N)n1` [Example 381, 3-(8-Amino-6-methylimidazo[1,2-a]pyrazin-3-yl)-N-(4-(hydroxymethyl)bicyclo[2.1.1]hexan-1-yl)benzenesulfonamide] the same measures were 0.1 to 0.5 µM, less than 0.1 µM and 0.1 to 0.5 µM.
As for `Cc1ccc(S(=O)(=O)NCC2CCC(F)(F)CC2)cc1-c1cnc2c(N)ncnn12` [Example 130, 3-(4-aminoimidazo[2,1-f][1,2,4]triazin-7-yl)-N-((4,4-difluorocyclohexyl)methyl)-4-methylbenzenesulfonamide], the IC50 in test [1] (Homo sapiens) is 0.5 to 1 µM; in test [2], less than 0.1 µM; in test [3], 0.5 to 2 µM.
`O=C(O)C(F)(F)F.[2H]C([2H])([2H])c1ccc(S(=O)(=O)NC23CCC(C#N)(C2)C3)cc1-c1cnc2c(N)nc(C)cn12` [Example 379, 3-(8-Amino-6-methylimidazo[1,2-a]pyrazin-3-yl)-N-(4-cyanobicyclo[2.1.1]hexan-1-yl)-4-(methyl-d3)benzenesulfonamide trifluoroacetate salt]: the IC50 in test [1] (Homo sapiens) was less than 0.1 µM; in test [2] it was less than 0.1 µM; in test [3], 0.1 to 0.5 µM.
With `Cc1ccc(S(=O)(=O)N[C@H]2CC[C@H](CC#N)OC2)cc1-c1cnc2c(N)ncnn12` [Example 183, 3-(4-aminoimidazo[2,1-f][1,2,4]triazin-7-yl)-N-((3S,6R)-6-(cyanomethyl)tetrahydro-2H-pyran-3-yl)-4-methylbenzenesulfonamide], the figures for the IC50 in test [1] (Homo sapiens), in test [2] and in test [3] were less than 0.1 µM, less than 0.1 µM and 0.1 to 0.5 µM, respectively.
`Cc1cc(-c2cn3c(-c4cc(S(=O)(=O)N[C@H]5CC[C@H](O)CC5)ccc4C)cnc3c(N)n2)on1` [Example 75, 3-[8-Amino-6-(3-methylisoxazol-5-yl)imidazo[1,2-a]pyrazin-3-yl]-N-(trans-4-hydroxycyclohexyl)-4-methylbenzenesulfonamide]: the IC50 was 0.1 to 0.5 µM in test [1] (Homo sapiens), less than 0.1 µM in test [2] and less than 0.1 µM in test [3].
Regarding `Cc1ccc(S(=O)(=O)N2CC(F)(F)C[C@H]2CO)cc1-c1cnc2c(N)ncnn12` [Example 212, (S)-(1-((3-(4-Aminoimidazo[2,1-f][1,2,4]triazin-7-yl)-4-methylphenyl)sulfonyl)-4,4-difluoropyrrolidin-2-yl)methanol], the concentration for half-maximal inhibition (IC50) in test [1] (Homo sapiens) is 0.5 to 1 µM; in test [2], less than 0.1 µM; in test [3], 0.5 to 2 µM.
For `Cc1ccc(S(=O)(=O)NC23CCC(C(F)F)(CC2)OC3)cc1-c1cnc2c(N)ncnn12` [Example 436, 3-(4-aminoimidazo[1,2-f][1,2,4]triazin-7-yl)-N-(1-(difluoromethyl)-2-oxabicyclo[2.2.2]octan-4-yl)-4-methylbenzenesulfonamide trifluoroacetate salt] the same measures were 0.1 to 0.5 µM, less than 0.1 µM and 0.1 to 0.5 µM.
As for `Cc1ccc(S(=O)(=O)NC23CC(Cn4ccnc4)(C2)C3)cc1-c1cnc2c(N)nc(C(F)(F)F)nn12` [Example 324, N-(3-((1H-Imidazol-1-yl)methyl)bicyclo[1.1.1]pentan-1-yl)-3-(4-amino-2-(trifluoromethyl)imidazo[1,2-f][1,2,4]triazin-7-yl)-4-methylbenzenesulfonamide trifluoroacetate salt], the IC50 was less than 0.1 µM in test [1], less than 0.1 µM in test [2] and 0.1 to 0.5 µM in test [3].
For `Cc1ccc(S(=O)(=O)NC23CCC(O)(CC2)C3)cc1-c1cnc2c(N)nc(C(F)(F)F)cn12` [Example 444, 3-(8-Amino-6-(trifluoromethyl)imidazo[1,2-a]pyrazin-3-yl)-N-(4-hydroxybicyclo[2.2.1]heptan-1-yl)-4-methylbenzenesulfonamide trifluoroacetate salt], the IC50 in test [1] (Homo sapiens) was 0.1 to 0.5 µM; in test [2] it was less than 0.1 µM; in test [3] it was less than 0.1 µM.
Turning to `Cc1ccc(S(=O)(=O)N(CCC#N)CCCO)cc1-c1cnc2c(N)ncnn12` [Example 175, 3-(4-aminoimidazo[2,1-f][1,2,4]triazin-7-yl)-N-(2-cyanoethyl)-N-(3-hydroxypropyl)-4-methylbenzenesulfonamide], the values for the IC50 in test [1] (Homo sapiens), in test [2] and in test [3] were 0.1 to 0.5 µM, less than 0.1 µM and 0.1 to 0.5 µM, respectively.
`Cc1ccc(S(=O)(=O)N2C(C)COCC2C)cc1-c1cnc2c(N)ncnn12` (stereo not drawn) [Example 155, 7-(5-((3,5-dimethylmorpholino)sulfonyl)-2-methylphenyl)imidazo[2,1-f][1,2,4]triazin-4-amine]: the results for the IC50 in test [1] (Homo sapiens), in test [2] and in test [3] were 0.1 to 0.5 µM, less than 0.1 µM and 0.1 to 0.5 µM, respectively.
For `Cc1ccc(S(=O)(=O)NC23CC(Cn4cccn4)(C2)C3)cc1-c1cnc2c(N)nc(C(F)(F)F)cn12` [Example 283, N-(3-((1H-pyrazol-1-yl)methyl)bicyclo[1.1.1]pentan-1-yl)-3-(8-amino-6-(trifluoromethyl)imidazo[1,2-a]pyrazin-3-yl)-4-methylbenzenesulfonamide trifluoroacetate salt], the IC50 was 0.1 to 0.5 µM in test [1] (Homo sapiens), less than 0.1 µM in test [2] and 0.1 to 0.5 µM in test [3].
For `Cc1ccc(S(=O)(=O)NC2COC2)cc1-c1cnc2c(N)ncnn12` [Example 104, 3-(4-Aminoimidazo[1,2-f][1,2,4]triazin-7-yl)-4-methyl-N-(oxetan-3-yl)benzenesulfonamide], the IC50 in test [1] was 0.5 to 1 µM; in test [2], less than 0.1 µM; in test [3] it was 0.5 to 2 µM.
For `Cc1ccc(S(=O)(=O)NCC2(O)COC2)cc1-c1cnc2c(N)nc(C(F)(F)F)nn12` [Example 316, 3-(4-Amino-2-(trifluoromethyl)imidazo[1,2-f][1,2,4]triazin-7-yl)-N-((3-hydroxyoxetan-3-yl)methyl)-4-methylbenzenesulfonamide trifluoroacetate salt] the same measures were less than 0.1 µM, less than 0.1 µM and 0.1 to 0.5 µM.
For `Cc1ccc(S(=O)(=O)NC23CC(c4nccs4)(C2)C3)cc1-c1cnc2c(N)ncnn12` [Example 114, 3-(4-Aminoimidazo[1,2-f][1,2,4]triazin-7-yl)-4-methyl-N-(3-(thiazol-2-yl)bicyclo[1.1.1]pentan-1-yl)benzenesulfonamide trifluoroacetate salt] the same measures were 0.1 to 0.5 µM, less than 0.1 µM and 0.1 to 0.5 µM.
In the case of `Cc1ccc(S(=O)(=O)N(C)[C@H]2CC[C@H](O)CC2)cc1-c1cnc2c(N)nccn12` [Example 52, 3-(8-Aminoimidazo[1,2-a]pyrazin-3-yl)-N-(trans-4-hydroxycyclohexyl)-N,4-dimethylbenzenesulfonamide], the IC50 is 0.5 to 1 µM in test [1] (Homo sapiens), less than 0.1 µM in test [2] and 0.1 to 0.5 µM in test [3].
With `Cc1ccc(S(=O)(=O)N2CCCC(CN)C2)cc1-c1cnc2c(N)nc(C(F)(F)F)cn12` (stereo not drawn) [Example 513, 3-(5-((3-(Aminomethyl)piperidin-1-yl)sulfonyl)-2-methylphenyl)-6-(trifluoromethyl)imidazo[1,2-a]pyrazin-8-amine trifluoroacetate], the values for the IC50 in test [1] (Homo sapiens), in test [2] and in test [3] were 0.1 to 0.5 µM, less than 0.1 µM and 0.1 to 0.5 µM, respectively.

(Values after patent publication US10479795B2 (Incyte Corporation, priority 2016, dated 2019).)
